≈ marks a conversion by molar mass, not a printed value. Where two headings read alike, the source gives them in different places.
Tests used:
[1] = target: AChE (Electrophorus electricus, UniProt O42275); experiment: Acetylcholinesterase inhibitory activity (Ellman method, modified); assay type: biochemical
Procedure: (§1) Cholinesterase inhibitory activities were analyzed as by Ellman and co-workers with some modifications as by López and co-workers. Fifty microliters of AChE or BuChE phosphate buffer (8m M K2HPO4, 2.3 mM NaH2PO4, 0.15 M NaCl, pH 7.5) and 50 μL of the sample dissolved in the same buffer were added to the wells. The plates were incubated for 30 min at room temperature before 100 μL of the substrate solution (0.1 M Na2HPO4, […], and 0.6 mM acetylthiocholine iodide, ATCI, or 0.24 mM butyrylthiocholine iodide, BTCI, in Millipore water, pH 7.5) was added. The absorbance was read in a Labsystem microplate reader (Helsinki, Finland) at 405 nm after 10 min. […] In a first step, samples were assessed at 10, 100 and 200 µg mL^−1 towards both enzymes. […] Enzyme activity was calculated as a percentage compared to an assay using a buffer without any inhibitor. The cholinesterase inhibitory data were analyzed with the software Microsoft Office Excel 2010.

[2] = target: BuChE (Equus caballus, UniProt P81908); experiment: Butyrylcholinesterase inhibitory activity (Ellman method, modified); assay type: biochemical
Sequence of BuChE (P81908 whole entry): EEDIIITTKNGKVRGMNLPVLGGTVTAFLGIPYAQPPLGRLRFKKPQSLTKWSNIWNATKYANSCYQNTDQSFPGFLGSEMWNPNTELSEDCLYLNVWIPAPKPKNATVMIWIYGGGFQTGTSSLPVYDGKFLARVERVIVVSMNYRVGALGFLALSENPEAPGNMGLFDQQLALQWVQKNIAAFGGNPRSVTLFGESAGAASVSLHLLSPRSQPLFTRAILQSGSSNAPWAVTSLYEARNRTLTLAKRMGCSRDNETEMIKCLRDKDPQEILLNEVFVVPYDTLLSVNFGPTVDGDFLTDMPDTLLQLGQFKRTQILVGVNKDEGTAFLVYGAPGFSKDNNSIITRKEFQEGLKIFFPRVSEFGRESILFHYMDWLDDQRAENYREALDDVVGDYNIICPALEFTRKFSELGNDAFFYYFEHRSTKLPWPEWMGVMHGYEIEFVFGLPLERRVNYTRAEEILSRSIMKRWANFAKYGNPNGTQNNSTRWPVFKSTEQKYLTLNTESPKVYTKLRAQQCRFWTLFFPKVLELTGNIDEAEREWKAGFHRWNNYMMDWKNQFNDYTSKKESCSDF
Procedure: as §1

[3] = test system: Trypanosoma brucei rhodesiense (trypomastigotes forms, STIB 900 strain); experiment: In vitro antiprotozoal activity against T. brucei rhodesiense; assay type: cell-based; conditions: read-out: T. brucei rhodesiense IC50
Procedure: (§2) In vitro tests for the biological activity of the alkaloids isolated from C. amabile against Trypanosoma brucei rhodesiense (trypomastigotes forms, STIB 900 strain), Trypanosoma cruzi (axenic grown amastigotes forms, Tulahuen C4 strain), Leishmania donovani (amastigotes forms, MHOM-ET-67/L82 strain), and Plasmodium falciparum (intraerythrocytic forms, IEF, NF54 strain) and a cytotoxicity test against the mammalian L6 cell line from rat skeletal myoblasts were carried out at the Swiss Tropical and Public Health Institute (Swiss TPH, Basel, Switzerland) according to established protocols as described by Orhan and co-workers. The reference drugs used in these assays were melarsoprol, benznidazole, miltefosine, chloroquine and podophyllotoxin, respectively.

[4] = test system: Trypanosoma cruzi (axenic grown amastigotes forms, Tulahuen C4 strain); experiment: In vitro antiprotozoal activity against T. cruzi; assay type: cell-based; conditions: read-out: T. cruzi IC50
Procedure: as §2

[5] = test system: Leishmania donovani (amastigotes forms, MHOM-ET-67/L82 strain); experiment: In vitro antiprotozoal activity against L. donovani; assay type: cell-based; conditions: read-out: L. donovani IC50
Procedure: as §2

[6] = test system: Plasmodium falciparum (intraerythrocytic forms, IEF, NF54 strain); experiment: In vitro antiprotozoal activity against P. falciparum NF54; assay type: cell-based
Procedure: as §2

[7] = Cytotoxicity test against mammalian L6 cell line; assay type: cell-based; conditions: L6 cells (rat skeletal myoblasts)
Procedure: as §2

[8] = test system: chloroquine-sensitive strain of Plasmodium falciparum; parameters: method as in PMID 8229016; conditions: read-out: IC50 against chloroquine-sensitive strain of Plasmodium falciparum; cited from earlier work
[9] = test system: chloroquine-resistant strain of Plasmodium falciparum; conditions: read-out: IC50 against chloroquine-resistant strain of Plasmodium falciparum; cited from earlier work
[10] = trypomastigotes forms, STIB 900 strain
[11] = amastigotes forms, Tulahuen C4 strain
[12] = amastigotes forms, MHOM-ET-67/L82 strain
[13] = intraerythrocytic forms, NF54 strain, read-out: P. falciparum IC50

Sequence of AChE (O42275 24-633): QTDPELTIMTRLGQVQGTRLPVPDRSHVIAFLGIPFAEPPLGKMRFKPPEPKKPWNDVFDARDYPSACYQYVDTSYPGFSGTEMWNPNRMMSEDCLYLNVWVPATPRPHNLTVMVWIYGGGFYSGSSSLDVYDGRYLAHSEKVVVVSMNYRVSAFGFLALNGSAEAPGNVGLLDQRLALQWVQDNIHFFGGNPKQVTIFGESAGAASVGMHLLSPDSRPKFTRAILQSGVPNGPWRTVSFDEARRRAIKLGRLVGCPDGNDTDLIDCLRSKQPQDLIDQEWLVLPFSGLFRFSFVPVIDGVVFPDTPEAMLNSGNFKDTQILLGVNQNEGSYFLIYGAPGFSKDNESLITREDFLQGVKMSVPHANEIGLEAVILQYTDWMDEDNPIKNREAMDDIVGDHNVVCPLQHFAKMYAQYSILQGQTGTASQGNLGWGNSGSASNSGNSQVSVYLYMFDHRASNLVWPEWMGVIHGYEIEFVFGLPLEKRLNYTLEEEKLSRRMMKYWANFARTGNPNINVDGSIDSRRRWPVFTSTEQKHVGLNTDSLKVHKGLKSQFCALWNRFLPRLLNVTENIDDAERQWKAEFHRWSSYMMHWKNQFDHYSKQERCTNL

Q: For `CN1CCC23c4cc5c(cc4C4OC(CCC12)C3O4)OCO5` (centres unmarked) [Augustamine (22), Augustamine], which “AChE inhibitory activity (in words)” value [1] is on record?
A: Its value is “did not show any cholinesterase inhibitory activities”.

Q: And the “BuChE inhibitory activity (in words)” value [2]?
A: The value was “did not show any cholinesterase inhibitory activities”.

Q: What about the IC50 [3, 10] of the same molecule?
A: Its IC50 is 19.2 ± 2.97 µg/mL (≈ 63.7 µM).

Q: What about the IC50 [4, 11] of the same molecule?
A: Its IC50 is 54 ± 4.53 µg/mL (≈ 179 µM).

Q: What about the IC50 [5, 12] of the same molecule?
A: Its IC50 is over 100 µg/mL.

Q: What about the IC50 [6, 13] of the same molecule?
A: The IC50 was 20.4 ± 0.21 µg/mL (≈ 67.5 µM).

Q: What about the IC50 [7] of the same molecule?
A: The IC50 was 81.55 ± 0.64 µg/mL (≈ 271 µM).

Q: Which “AChE inhibitory activity (in words)” value [1] does the source give for `CO[C@@H]1C[C@H]2N3CC[C@@]2(c2cc4c(cc2C3)OCO4)[C@H]2O[C@@H]12` [Augustine (13), Augustine] here?
A: The value was “moderate”.

Q: What about the IC50 [3, 10] of the same molecule?
A: The IC50 was 15.1 ± 1.06 µg/mL (≈ 49.9 µM).

Q: What about the IC50 [4, 11] of the same molecule?
A: Its IC50 is 56 ± 0.71 µg/mL (≈ 186 µM).

Q: What about the IC50 [5, 12] of the same molecule?
A: Its IC50 is over 100 µg/mL.

Q: What about the IC50 [6, 13] of the same molecule?
A: The IC50 was 14.2 ± 0.14 µg/mL (≈ 47.1 µM).

Q: And the IC50 [7]?
A: Its IC50 is over 100 µg/mL.

Q: What about the IC50 [8] of the same molecule?
A: Its IC50 is 460 nM.

Q: And the IC50 [9]?
A: Its IC50 is 600 nM.

Q: Which IC50 [3, 10] does the source give for `CO[C@@H]1C[C@@H]2[C@@]3(CC[N@@+]2([O-])Cc2cc4c(cc23)OCO4)[C@H]2O[C@@H]12` [Augustine N-oxide (1), Augustine N-oxide] here?
A: The IC50 was 58.9 ± 11.5 µg/mL (≈ 185 µM).

Q: And the IC50 [4, 11]?
A: The IC50 was 66.2 ± 11.8 µg/mL (≈ 209 µM).

Q: What about the IC50 [5, 12] of the same molecule?
A: The IC50 was over 100 µg/mL.

Q: And the IC50 [6, 13]?
A: The IC50 was 36.6 ± 4.74 µg/mL (≈ 115 µM).

Q: And the IC50 [7]?
A: The IC50 was over 100 µg/mL.

Q: With `CO[C@H]1C=C[C@@]23CCN(Cc4cc5c(cc42)OCO5)[C@@H]3C1` [Buphanisine (8), Buphanisine] as the molecule, how does the “AChE inhibitory activity (in words)” value [1] read?
A: Its value is “low”.

Q: What about the IC50 [3, 10] of the same molecule?
A: Its IC50 is 16.5 ± 0.57 µg/mL (≈ 57.8 µM).

Q: What about the IC50 [4, 11] of the same molecule?
A: Its IC50 is 55.5 ± 4.6 µg/mL (≈ 195 µM).

Q: What about the IC50 [5, 12] of the same molecule?
A: The IC50 was over 100 µg/mL.

Q: And the IC50 [6, 13]?
A: The IC50 was 4.28 ± 0.18 µg/mL (≈ 15 µM).

Q: What about the IC50 [7] of the same molecule?
A: Its IC50 is 72.8 ± 5.02 µg/mL (≈ 255 µM).

Q: Which IC50 [3, 10] does the source give for `CO[C@H]1C=C[C@@]23CC[N@@+]([O-])(Cc4cc5c(cc42)OCO5)[C@@H]3C1` [Buphanisine N-oxide (2), Buphanisine N-oxide] here?
A: Its IC50 is 55.2 ± 4.31 µg/mL (≈ 183 µM).

Q: What about the IC50 [4, 11] of the same molecule?
A: The IC50 was 64 ± 1.34 µg/mL (≈ 213 µM).

Q: What about the IC50 [5, 12] of the same molecule?
A: Its IC50 is over 100 µg/mL.

Q: And the IC50 [6, 13]?
A: Its IC50 is 32.55 ± 0.07 µg/mL (≈ 108 µM).

Q: And the IC50 [7]?
A: Its IC50 is over 100 µg/mL.

Q: For `O[C@H]1C=C[C@@]23CCN(Cc4cc5c(cc42)OCO5)[C@@H]3C1` [Crinine (10), Crinine], which IC50 [3, 10] is on record?
A: The IC50 was 18.9 ± 0.78 µg/mL (≈ 69.8 µM).

Q: And the IC50 [4, 11]?
A: The IC50 was 57.5 ± 6.86 µg/mL (≈ 212 µM).

Q: And the IC50 [5, 12]?
A: The IC50 was over 100 µg/mL.

Q: What about the IC50 [6, 13] of the same molecule?
A: Its IC50 is 30.9 ± 2.19 µg/mL (≈ 114 µM).

Q: What about the IC50 [7] of the same molecule?
A: Its IC50 is over 100 µg/mL.

Q: For `O=C(Cn1ccnc1[N+](=O)[O-])NCc1ccccc1` [benznidazole, reference compound], which IC50 ([4]; TULAHUEN) is on record?
A: Its IC50 is 0.865 ± 0.08 µg/mL (≈ 3.32 µM).

Q: Which IC50 ([6]; NF54, read-out: P. falciparum IC50) does the source give for `CCN(CC)CCCC(C)Nc1ccnc2cc(Cl)ccc12` (centres unmarked) [chloroquine, reference compound] here?
A: The IC50 was 0.004 ± 0.0007 µg/mL (≈ 0.0125 µM).

Q: Which IC50 [3] does the source give for `Nc1nc(N)nc(Nc2ccc([As]3SCC(CO)S3)cc2)n1` (centres unmarked) [melarsoprol, reference compound] here?
A: The IC50 was 0.003 ± 0.001 µg/mL.

Q: With `CCCCCCCCCCCCCCCCOP(=O)([O-])OCC[N+](C)(C)C` [miltefosine, reference compound] as the molecule, how does the IC50 [5] read?
A: The IC50 was 0.515 ± 0.06 µg/mL (≈ 1.26 µM).

Q: With `COc1cc([C@@H]2c3cc4c(cc3[C@H](O)[C@H]3COC(=O)[C@H]23)OCO4)cc(OC)c1OC` [podophyllotoxin, reference compound] as the molecule, how does the IC50 [7] read?
A: Its IC50 is 0.004 ± 0.0007 µg/mL (≈ 0.00965 µM).

From publication PMC6099558, “N-oxide alkaloids from Crinum amabile (Amaryllidaceae)” (Molecules : A Journal of Synthetic Chemistry and Natural …, 2018)
